Test results reported in ChEMBL document CHEMBL1124585, “Iodoaryl analogues of dioctanoylglycerol and 1-oleoyl-2-acetylglycerol as probes for protein kinase C” (J Med Chem, 1989).

Biological target: Protein kinase C (PKC) (Rattus norvegicus) (UniProt P05696+P68403+P09216+P63319+P09215+Q64617+Q9WTQ0+P09217)
Test: Activation of protein kinase C
Format: protein assay

Dose [µM] | Structure (SMILES)
1 | CCCCCCCC(=O)OCC(CO)OC(=O)CCc1cccc(I)c1 (stereo not drawn)
1 | CC(=O)OC(CO)COC(=O)CCCCCCCCCCCCCCc1cccc(I)c1 (stereo not drawn)
1 | CC(=O)OCC(CO)OC(=O)CCCCCCCCCCCCCCc1cccc(I)c1 (stereo not drawn)
